Test results reported in publication PMC10145973, “Genomic Insights into Bacterial Resistance to Proline-Rich Antimicrobial Peptide Bac7” (Membranes, 2023).
Values after ≈ are worked out from the molar mass of the structure shown. Values joined by “and” are separate entries in the source; they are usually repeats but may differ in a detail not shown here. Equal values may be shown once. Read-outs that look alike come from different tables or passages of the source. Marks after values point to notes of the source that are not given here. Where a SMILES comes first, the peptide text is derived from it. Bridges are numbered along the chain shown (N, C = ends). [ ]: non-standard residue; d: D form. The star is where a group is joined. X1 = CC[C@H](C)CCCCC(=O)*; Dab = NCC[C@H](N)C(=O)O

What was measured:
[1] = tested on: E. coli MDR 1057 P1; conditions: Table 2, broth microdilution in MHB (medium ±0.9% NaCl not given), 0.1% BSA, 24 h, 37 °C, median of at least three independent experiments in triplicate
[2] = tested on: E. coli BW25113 WT; assay: MIC, broth microdilution, BW25113; type: cell-based, Escherichia coli; conditions: 24 h, 37 °C
[3] = tested on: E. coli BW25113 ΔsbmA (sbmA::kan, JW0368); assay: MIC, broth microdilution, sbmA knockout; type: cell-based, Escherichia coli; conditions: Fig. 3C, 24 h, 37 °C
[4] = tested on: E. coli MDR 1057 B2; conditions: 24 h, 37 °C; for Minimum Inhibitory Concentration, B2: Table 2, broth microdilution in MHB (medium ±0.9% NaCl not given), 0.1% BSA, median of at least three independent experiments in triplicate
[5] = tested on: E. coli MDR 1057 B3; conditions: 24 h, 37 °C; for Minimum Inhibitory Concentration, B3: Table 2, broth microdilution in MHB (medium ±0.9% NaCl not given), 0.1% BSA, median of at least three independent experiments in triplicate
[6] = tested on: E. coli BW25113 ΔwaaP (waaP::kan, JW3605); assay: MIC, broth microdilution, waaP knockout; type: cell-based, Escherichia coli; conditions: 24 h, 37 °C
[7] = tested on: E. coli MDR 1057 strain
[8] = tested on: E. coli MDR 1057 B1; conditions: Fig. 3C, 24 h, 37 °C
[9] = tested on: E. coli MDR 1057 WT; conditions: 24 h, 37 °C; for Minimum Inhibitory Concentration, WT: Table 2, broth microdilution in MHB (medium ±0.9% NaCl not given), 10^6 CFU/mL suspension, agents diluted in 0.1% BSA, visible turbidity, median of at least three independent experiments in triplicate
[10] = tested on: E. coli BW25113 ΔwaaP (pBAD-WaaP^N159H); conditions: complementation in BW25113 ΔwaaP, 0.1 g/L arabinose
[11] = tested on: extensively drug-resistant Klebsiella pneumoniae isolate; parameters: method as in PMID 30445429; conditions: serially passaged in the presence of the agent; cited from earlier work
[12] = tested on: resistant Salmonella enterica strain (pmrB mutations); conditions: cited from earlier work
[13] = tested on: E. coli MDR 1057 B3; assay: microbe, parasite or virus in culture; conditions: Escherichia coli, MDR1057B3, 24 h, read-out: Minimum Inhibitory Concentration, B3
[14] = tested on: E. coli MDR 1057 P1; assay: microbe, parasite or virus in culture; conditions: Escherichia coli, MDR1057P1, 24 h, read-out: Minimum Inhibitory Concentration, P1
[15] = tested on: E. coli MDR 1057 B2; assay: microbe, parasite or virus in culture; conditions: Escherichia coli, MDR1057B2, 24 h, read-out: Minimum Inhibitory Concentration, B2
[16] = tested on: E. coli MDR 1057 WT; assay: microbe, parasite or virus in culture; conditions: Escherichia coli, MDR1057WT, 24 h, read-out: Minimum Inhibitory Concentration, WT
[17] = tested on: Mycobacterium smegmatis mc(2)155; assay: MIC against Mycobacterium smegmatis (unpublished data); type: cell-based; conditions: authors' unpublished data
[18] = tested on: Mycobacterium phlei; parameters: method as in PMID 35629841; conditions: cited from earlier work
[19] = tested on: septic shock-modelled rats; parameters: method as in PMID 12785015; conditions: comparable with polymyxin B; cited from earlier work
[20] = tested on: M. tuberculosis H37Rv; conditions: cited from earlier work
[21] = Fig. 3C and text, MHB +0.9% NaCl
[22] = selection in MHB without 0.9% NaCl

CC[C@H](C)[C@H](NC(=O)[C@H](CCCNC(=N)N)NC(=O)[C@@H](N)CCCNC(=N)N)C(=O)N[C@@H](CCCNC(=N)N)C(=O)N1CCC[C@H]1C(=O)N[C@@H](CCCNC(=N)N)C(=O)N1CCC[C@H]1C(=O)N1CCC[C@H]1C(=O)N[C@@H](CCCNC(=N)N)C(=O)N[C@@H](CC(C)C)C(=O)N1CCC[C@H]1C(=O)N[C@@H](CCCNC(=N)N)C(=O)N1CCC[C@H]1C(=O)N[C@@H](CCCNC(=N)N)C(=O)N1CCC[C@H]1C(=O)N[C@@H](CCCNC(=N)N)C(=O)N1CCC[C@H]1C(=O)N[C@@H](CC(C)C)C(=O)N1CCC[C@H]1C(=O)N[C@@H](Cc1ccccc1)C(=O)N1CCC[C@H]1C(=O)N[C@@H](CCCNC(=N)N)C(=O)O [Bac7_1-22] (H-RRIRPRPPRLPRPRPRPLPFPR-OH)
Minimum Inhibitory Concentration, P1 [1]: 16 * µM | MIC, MHB +0.9% NaCl [2, 21]: 1 µM (≈ 2.78 µg/mL) | MIC, MHB ([2]; Fig. 3C, salt-free MHB): 2 µM | MIC, MHB +0.9% NaCl ([3]; MHB +0.9% NaCl): 16 µM (≈ 44.6 µg/mL) | MIC, MHB ([3]; salt-free MHB): 1 µM | MIC, MHB +0.9% NaCl ([4]; Fig. 3C, MDR 1057 B2, MHB +0.9% NaCl): 32 µM (≈ 89.1 µg/mL) | MIC, MHB ([4]; Fig. 3C, MDR 1057 B2, salt-free MHB): 1 µM | Minimum Inhibitory Concentration, B2 [4]: >32 µM | MIC, MHB +0.9% NaCl ([5]; Fig. 3C and text, MDR 1057 B3, MHB +0.9% NaCl): 32−64 μM | MIC, MHB ([5]; Fig. 3C and text, MDR 1057 B3, salt-free MHB): 32 µM | Minimum Inhibitory Concentration, B3 [5]: >32 µM | MIC, MHB +0.9% NaCl [6, 21]: 1 µM (≈ 2.78 µg/mL) | MIC, MHB ([6]; Fig. 3C, salt-free MHB): 2 µM | increases in MIC values after initial 3-4 passages ([7]; selection in MHB + 0.9% NaCl, strains B1 and B2): ≥ 32 fold | increase in MICs after 4 weeks of selection, strain B3 [7, 22]: 32 fold | increase in MICs after 4 weeks of selection, strain B4 [7, 22]: 4 fold | increase in minimal inhibitory concentrations (MICs), three resistant strains ([7]; serial passaging, four-week experimental evolution (abstract)): ≥ 16 fold | MIC, MHB +0.9% NaCl ([8]; MHB +0.9% NaCl): 32 µM (≈ 89.1 µg/mL) | MIC, MHB ([8]; salt-free MHB): 1 µM | MIC, MHB +0.9% NaCl ([9]; Fig. 3C, MDR 1057 WT, MHB +0.9% NaCl, median of ≥3 experiments): 2 µM (≈ 5.57 µg/mL) | MIC, MHB ([9]; Fig. 3C, MDR 1057 WT, salt-free MHB, median of ≥3 experiments): 1−2 μM | increase in MICs for the strain expressing waaP^N159H as compared with the wild-type variant [10]: 4–8 fold

CC[C@H](C)CCCCC(=O)N[C@@H](CCN)C(=O)N[C@H](C(=O)N[C@@H](CCN)C(=O)N[C@H]1CCNC(=O)[C@H]([C@@H](C)O)NC(=O)[C@H](CCN)NC(=O)[C@H](CCN)NC(=O)[C@H](CC(C)C)NC(=O)[C@@H](Cc2ccccc2)NC(=O)[C@H](CCN)NC1=O)[C@@H](C)O [Polymyxin B] (X1-[Dab]T[Dab][Dab][Dab][dF]L[Dab][Dab]T; lactam 4-C (inferred); N-terminus assumed)
Minimum Inhibitory Concentration, P1 ([1]; listed as PmxB): > 128 µM | Minimum Inhibitory Concentration, B2 [4]: 0.125 µM | increase in MIC after serial passage [11]: ≥ 1000 fold | Minimum Inhibitory Concentration, B3 [5]: 8 µM | final MIC relative to initial MIC, the P2 strain ([7]; PmxB selection): 32 × MIC | final MIC relative to initial MIC, the P1 strain ([7]; PmxB selection, MHB + 0.9% NaCl, 25 passages): 2048 × MIC | final MIC value, the P1 strain ([7]; PmxB selection, MHB + 0.9% NaCl, 25 passages, then three passages on drug-free agar): 128 µM | final MIC value, the P2 strain ([7]; PmxB selection, after final passage and three passages on drug-free agar): 2 µM | MIC at start of the selection experiment ([7]; both repetitions (P1 and P2), before selection): 0.0625 µM | Minimum Inhibitory Concentration, WT [9]: 0.125 µM | MIC after a single pmrB mutation ([12]; listed as PmxB): up to 3 µg/mL and ≤ 4 µM

CC[C@H]1OC(=O)[C@H](C)[C@@H](O[C@H]2C[C@@](C)(OC)[C@@H](O)[C@H](C)O2)[C@H](C)[C@@H](O[C@@H]2O[C@H](C)C[C@H](N(C)C)[C@H]2O)[C@](C)(O)C[C@@H](C)/C(=N\OCOCCOC)[C@H](C)[C@@H](O)[C@]1(C)O [Roxithromycin]
MIC [13]: 256 µM (≈ 214 µg/mL) | MIC [14]: > 256 µM | MIC [15]: 256 µM (≈ 214 µg/mL) | MIC [16]: 256 µM (≈ 214 µg/mL)

CN[C@@H]1[C@H](O)[C@H](NC)[C@H]2O[C@@]3(O)C(=O)C[C@@H](C)O[C@H]3O[C@@H]2[C@H]1O [Spectinomycin]
MIC [13]: 32 µM (≈ 10.6 µg/mL) | MIC [14]: 64 µM (≈ 21.3 µg/mL) | MIC [15]: 32 µM (≈ 10.6 µg/mL) | MIC [16]: 32 µM (≈ 10.6 µg/mL)

CC[C@H](C)[C@H](NC(=O)[C@H](CCCNC(=N)N)NC(=O)[C@@H](N)CCCNC(=N)N)C(=O)N[C@@H](CCCNC(=N)N)C(=O)N[C@@H](CCCNC(=N)N)C(=O)N1CCC[C@H]1C(=O)N[C@@H](CCCNC(=N)N)C(=O)N[C@@H](CC(C)C)C(=O)N1CCC[C@H]1C(=O)N[C@@H](CCCNC(=N)N)C(=O)N1CCC[C@H]1C(=O)N[C@@H](CCCNC(=N)N)C(=O)N[C@H](C(=O)N1CCC[C@H]1C(=O)N[C@@H](CCCNC(=N)N)C(=O)N1CCC[C@H]1C(=O)N[C@@H](CCCNC(=N)N)C(=O)N[C@H](C(=O)N1CCC[C@H]1C(=O)N1CCC[C@H]1C(=O)N[C@@H](CCCNC(=N)N)C(=O)N[C@H](C(=O)N1CCC[C@H]1C(=O)N[C@@H](CCCNC(=N)N)C(=O)N1CCC[C@H]1C(=O)N[C@H](C(=O)N[C@@H](CC(C)C)C(=O)N1CCC[C@H]1C(=O)N1CCC[C@H]1C(=O)N1CCC[C@H]1C(=O)N[C@@H](CCCNC(=N)N)C(=O)N[C@H](C(=O)N1CCC[C@H]1C(=O)N[C@@H](Cc1ccccc1)C(=O)N1CCC[C@H]1C(=O)N[C@@H](CCCNC(=N)N)C(=O)N[C@@H](Cc1ccccc1)C(=O)N1CCC[C@H]1C(=O)N[C@@H](CCCNC(=N)N)C(N)=O)C(C)C)C(C)C)[C@@H](C)CC)[C@@H](C)CC)C(C)C [VicBac] (H-RRIRRPRLPRPRVPRPRIPPRIPRPVLPPPRVPFPRFPR-NH2; N-terminus assumed)
Minimum Inhibitory Concentration, P1 [1]: 4 µM | Minimum Inhibitory Concentration, B2 [4]: 2 µM | MIC [17]: 0.5 to 1 µM | Minimum Inhibitory Concentration, B3 [5]: 2 µM | Minimum Inhibitory Concentration, WT [9]: 1 µM | MIC [18]: 0.5 to 1 µM

Bac7_1-35: Bac7 fragment 1-35 (RRIRPRPPRLPRPRPRPLPFPRPGPRPIPRPLPFP; Bactenecin-7; UniProt P19661 131-165, looked up, fragment)
plasma LPS levels and lethality rates [19]: significant decrease

PR-39
concentration inhibiting growth [20]: about 10 µM

colistin
increase in MIC after serial passage [11]: ≥ 1000 fold | MIC after a single pmrB mutation [12]: up to 3 µg/mL and ≤ 4 µM
